This is an account of results in ChEMBL document CHEMBL2390876, “Synthesis and evaluation of 4,5-dihydro-5-methylisoxazolin-5-carboxamide derivatives as VLA-4 antagonists” (Bioorg Med Chem Lett, 2013).

Data set [1] in a line: in vitro. As to conditions: human, liver microsomes. Background: Liver microsomes are a subcellular fraction often used to study metabolism.
Data set [2] in a line: in vitro. The settings on record: rat, liver microsomes.
Data set [3] is described as follows: in vitro. As to conditions: mouse, liver microsomes.

With `CC(C1=NOC(C)(C(=O)N[C@@H](Cc2ccc(NC(=O)c3c(Cl)cccc3Cl)cc2)C(=O)O)C1)c1ccccc1` (stereo partly drawn), the fraction remaining (as a rule, what is left of the initial amount, in per cent) at 0.5 h in data set [1] was found to be 95%; in data set [2] it was 84.5%; in data set [3], 99%.
